ChEMBL document CHEMBL1201862, “PubChem BioAssay data set” (2004)
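Each compound was tested at five concentrations against cells in 96-well plates for 48 hours. Here, GI50 denotes the concentration required for 50% inhibition of growth.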 Active and inactive are the calls of the source. Rule as the data show it: active = GI50 up to about 1.1 µM and inactive = higher.

What was measured:
Assay in all cases: DTP human tumour cell line panel, 48 h
[1] = tested on: A549
[2] = tested on: CAKI-1
[3] = tested on: COLO 205
[4] = tested on: HCC 2998
[5] = tested on: IGROV-1
[6] = tested on: LOX IMVI
[7] = tested on: MCF7
[8] = tested on: MDA-MB-435
[9] = tested on: Malme-3M
[10] = tested on: NCI-H460
[11] = tested on: OVCAR-4
[12] = tested on: OVCAR-5
[13] = tested on: OVCAR-8
[14] = tested on: RPMI-8226
[15] = tested on: SF-268
[16] = tested on: SK-MEL-2
[17] = tested on: SK-MEL-5
[18] = tested on: SNB-19
[19] = tested on: SR
[20] = tested on: U-251

CCN(CCCl)c1cc(CN(C)C)cc(NC(=O)C23CCC(C(=O)Nc4cc(CN(C)C)cc(N(CC)CCCl)c4)(CC2)CC3)c1
GI50 [1]: 1.03 µM (active)
GI50 [2]: 11.1 µM (inactive)
GI50 [3]: 1.49 µM (inactive)
GI50 [4]: 1.33 µM (inactive)
GI50 [5]: 1.44 µM (inactive)
GI50 [6]: 0.152 µM (active)
GI50 [7]: 0.0255 µM (active)
GI50 [8]: 1.39 µM (inactive)
GI50 [9]: 1.71 µM (inactive)
GI50 [10]: 0.0687 µM (active)
GI50 [11]: 1.4 µM (inactive)
GI50 [12]: 1.5 µM (inactive)
GI50 [13]: 1.11 µM (active)
GI50 [14]: 1.35 µM (inactive)
GI50 [15]: 0.23 µM (active)
GI50 [16]: 2.39 µM (inactive)
GI50 [17]: 1.75 µM (inactive)
GI50 [18]: 0.113 µM (active)
GI50 [19]: 0.0329 µM (active)
GI50 [20]: 0.764 µM (active)

COc1ccc(OC)c(/N=C/c2cc(OC)c(OC)c(OC)c2)c1
GI50 [1]: > 100 µM (inactive)
GI50 [2]: 80.5 µM (inactive)
GI50 [3]: > 100 µM (inactive)
GI50 [4]: > 100 µM (inactive)
GI50 [5]: > 82.8 µM (inactive)
GI50 [6]: > 100 µM (inactive)
GI50 [7]: 62.4 µM (inactive)
GI50 [8]: 28 µM (inactive)
GI50 [9]: > 100 µM (inactive)
GI50 [10]: > 100 µM (inactive)
GI50 [11]: > 85.1 µM (inactive)
GI50 [12]: > 100 µM (inactive)
GI50 [13]: > 100 µM (inactive)
GI50 [14]: > 44.1 µM (inactive)
GI50 [15]: > 100 µM (inactive)
GI50 [16]: > 100 µM (inactive)
GI50 [17]: > 100 µM (inactive)
GI50 [18]: > 100 µM (inactive)
GI50 [19]: 32.5 µM (inactive)
GI50 [20]: > 100 µM (inactive)

COc1ccc(C[C@@H]2CN(C(=O)c3ccccc3)[C@H](Cc3ccc(O)cc3)CN2C(=O)c2ccccc2)cc1Br
GI50 [1]: > 100 µM (inactive)
GI50 [2]: > 100 µM (inactive)
GI50 [3]: > 100 µM (inactive)
GI50 [4]: > 100 µM (inactive)
GI50 [5]: > 100 µM (inactive)
GI50 [6]: > 100 µM (inactive)
GI50 [7]: > 100 µM (inactive)
GI50 [8]: > 100 µM (inactive)
GI50 [9]: > 100 µM (inactive)
GI50 [10]: > 100 µM (inactive)
GI50 [11]: > 100 µM (inactive)
GI50 [12]: > 100 µM (inactive)
GI50 [13]: > 100 µM (inactive)
GI50 [14]: 82.8 µM (inactive)
GI50 [15]: > 100 µM (inactive)
GI50 [16]: > 100 µM (inactive)
GI50 [18]: > 100 µM (inactive)
GI50 [19]: 88.3 µM (inactive)

COC(=O)CNC(=O)/C=C/[C@H](O[Si](C)(C)C(C)(C)C)[C@H](/C=C/C(=O)NCC(=O)OC)O[Si](C)(C)C(C)(C)C
GI50 [1]: > 25 µM (inactive)
GI50 [2]: > 25 µM (inactive)
GI50 [3]: > 25 µM (inactive)
GI50 [4]: > 25 µM (inactive)
GI50 [5]: > 25 µM (inactive)
GI50 [6]: > 25 µM (inactive)
GI50 [7]: > 25 µM (inactive)
GI50 [8]: > 25 µM (inactive)
GI50 [9]: > 25 µM (inactive)
GI50 [10]: > 25 µM (inactive)
GI50 [11]: > 25 µM (inactive)
GI50 [12]: > 25 µM (inactive)
GI50 [13]: > 25 µM (inactive)
GI50 [14]: > 25 µM (inactive)
GI50 [15]: > 25 µM (inactive)
GI50 [16]: > 25 µM (inactive)
GI50 [17]: > 25 µM (inactive)
GI50 [18]: > 25 µM (inactive)
GI50 [19]: > 25 µM (inactive)
GI50 [20]: > 25 µM (inactive)

O=c1[nH]c2ccc(C(F)(F)F)cc2nc1C(F)(F)F
GI50 [1]: 27.9 µM (inactive)
GI50 [2]: 30.3 µM (inactive)
GI50 [3]: 17.1 µM (inactive)
GI50 [4]: 43.4 µM (inactive)
GI50 [5]: 22.8 µM (inactive)
GI50 [6]: 20.7 µM (inactive)
GI50 [7]: 23 µM (inactive)
GI50 [8]: 31.2 µM (inactive)
GI50 [9]: 21.2 µM (inactive)
GI50 [10]: 33.9 µM (inactive)
GI50 [11]: 36.6 µM (inactive)
GI50 [12]: 35.6 µM (inactive)
GI50 [13]: 25.3 µM (inactive)
GI50 [14]: 30.6 µM (inactive)
GI50 [15]: 30.8 µM (inactive)
GI50 [16]: 15 µM (inactive)
GI50 [17]: 17.2 µM (inactive)
GI50 [18]: 28 µM (inactive)
GI50 [19]: 39.4 µM (inactive)
GI50 [20]: 35 µM (inactive)

CN(CCc1ccccn1)C(=S)N/N=C/c1ccccn1
GI50 [1]: 0.285 µM (active)
GI50 [2]: < 0.01 µM (active)
GI50 [3]: < 0.01 µM (active)
GI50 [4]: 0.23 µM (active)
GI50 [5]: 0.0184 µM (active)
GI50 [6]: 0.07 µM (active)
GI50 [7]: < 0.01 µM (active)
GI50 [8]: 0.678 µM (active)
GI50 [9]: 0.182 µM (active)
GI50 [10]: 0.299 µM (active)
GI50 [11]: 0.112 µM (active)
GI50 [12]: 0.0238 µM (active)
GI50 [13]: 0.0308 µM (active)
GI50 [14]: < 0.01 µM (active)
GI50 [15]: 0.248 µM (active)
GI50 [16]: 0.0168 µM (active)
GI50 [17]: 0.11 µM (active)
GI50 [18]: 4.69 µM (inactive)
GI50 [19]: < 0.01 µM (active)

C=C(CO)[C@H]1Oc2ccc(C(C)=O)cc2[C@@H]1O
GI50 [1]: > 100 µM (inactive)
GI50 [2]: > 100 µM (inactive)
GI50 [3]: > 100 µM (inactive)
GI50 [4]: > 100 µM (inactive)
GI50 [5]: > 100 µM (inactive)
GI50 [6]: > 100 µM (inactive)
GI50 [7]: > 100 µM (inactive)
GI50 [8]: 36.8 µM (inactive)
GI50 [9]: 53.3 µM (inactive)
GI50 [10]: > 100 µM (inactive)
GI50 [11]: > 100 µM (inactive)
GI50 [12]: > 100 µM (inactive)
GI50 [13]: > 100 µM (inactive)
GI50 [14]: > 100 µM (inactive)
GI50 [15]: > 100 µM (inactive)
GI50 [16]: > 100 µM (inactive)
GI50 [17]: > 100 µM (inactive)
GI50 [18]: > 100 µM (inactive)
GI50 [19]: > 100 µM (inactive)
GI50 [20]: > 100 µM (inactive)

O=C1CSC2(CC(/C=C/c3ccccc3O)=NN2c2cccc(S(=O)(=O)O)c2)N1c1nc2ccccc2s1 (configuration not stated)
GI50 [1]: 50.4 µM (inactive)
GI50 [2]: 28.3 µM (inactive)
GI50 [3]: 29.9 µM (inactive)
GI50 [4]: 21.9 µM (inactive)
GI50 [5]: 23.3 µM (inactive)
GI50 [6]: 17.3 µM (inactive)
GI50 [7]: 34.3 µM (inactive)
GI50 [8]: 21.4 µM (inactive)
GI50 [9]: 41.9 µM (inactive)
GI50 [10]: 34.1 µM (inactive)
GI50 [11]: 22 µM (inactive)
GI50 [12]: 26.9 µM (inactive)
GI50 [13]: 17.9 µM (inactive)
GI50 [14]: 16 µM (inactive)
GI50 [15]: 45 µM (inactive)
GI50 [16]: 34 µM (inactive)
GI50 [17]: 25.9 µM (inactive)
GI50 [18]: 53.7 µM (inactive)
GI50 [19]: 18.4 µM (inactive)
GI50 [20]: 33.9 µM (inactive)

O=C1CC[C@@]2(O)[C@H]3Cc4ccc(-c5ccccc5)c5c4[C@@]2(CCN3CC2CC2)[C@H]1O5
GI50 [1]: 20.6 µM (inactive)
GI50 [2]: 18.3 µM (inactive)
GI50 [3]: 17.7 µM (inactive)
GI50 [4]: 18.4 µM (inactive)
GI50 [5]: 27.2 µM (inactive)
GI50 [6]: 16 µM (inactive)
GI50 [7]: 18.2 µM (inactive)
GI50 [8]: 13.2 µM (inactive)
GI50 [9]: 15.5 µM (inactive)
GI50 [10]: 17.9 µM (inactive)
GI50 [11]: 35.9 µM (inactive)
GI50 [12]: 17.2 µM (inactive)
GI50 [13]: 16.1 µM (inactive)
GI50 [14]: 15.4 µM (inactive)
GI50 [15]: 14.3 µM (inactive)
GI50 [16]: 17.9 µM (inactive)
GI50 [17]: 14.2 µM (inactive)
GI50 [18]: 25.5 µM (inactive)
GI50 [19]: 25.9 µM (inactive)
GI50 [20]: 17 µM (inactive)

CC(=O)c1csc2c1C(=O)c1ccccc1C2=O
GI50 [1]: 1.92 µM (inactive)
GI50 [2]: 3.99 µM (inactive)
GI50 [3]: 1.74 µM (inactive)
GI50 [4]: 1.75 µM (inactive)
GI50 [5]: 2.4 µM (inactive)
GI50 [6]: 2.36 µM (inactive)
GI50 [7]: 2.1 µM (inactive)
GI50 [8]: 0.9 µM (active)
GI50 [9]: 0.483 µM (active)
GI50 [10]: 1.48 µM (inactive)
GI50 [11]: 6.04 µM (inactive)
GI50 [12]: 2.35 µM (inactive)
GI50 [13]: 2.51 µM (inactive)
GI50 [14]: 5.65 µM (inactive)
GI50 [15]: 2.78 µM (inactive)
GI50 [16]: 3.06 µM (inactive)
GI50 [17]: 0.18 µM (active)
GI50 [18]: 2.12 µM (inactive)
GI50 [19]: 3.66 µM (inactive)
GI50 [20]: 2.88 µM (inactive)
